Results reported in patent US20210070866A1, “Pharmaceutical Composition For Preventing Or Treating Tissue Adhesion Comprising Integrin a2ß1 Inhibitors” (KOREA UNIVERSITY RESEARCH AND BUSINESS FOUNDATION, priority 2019, published 2021).

Key:
integrin α2β1 = integrin α2β1 (Homo sapiens, UniProt P17301); settings: according to manufacturer's instructions; read-out: half maximal effective concentration (EC50); cited from earlier work
hDMCs = assay: Cytotoxicity assay of BTT 3033 (cell viability assay, WST); assay type: cell-based, human; settings: for Viability (A.U.): 37° C., 90 min
Description: To evaluate cell viability, EZ-Cytox cell viability assay kit (Daeillab Service Ltd., Seoul, Republic of Korea) was used according to the manufacturer's instructions. Water-soluble tetrazolium salt (WST) reagent was added to each well. After 1 hour of incubation, the absorbance of the supernatant was measured at the wavelength of 450 nm on a microplate absorbance reader. The viability was assessed by normalized absorbance values.
For cytotoxicity assay of BTT 3033, hDMCs were treated with BTT 3033 in a dose dependent manner and incubated at 37° C. for 90 min. After incubation, cell viability assay was performed.

co-cultured hDMCs = assay: Adhesion assay of co-cultured hDMCs to ECM components after integrin α2β1 inhibitor treatment; assay type: cell-based, human; settings: 130 nM, 37° C., 30 min
Description: Adhesion assays identifying ECM components adhering to hDMC were performed using CytoSelect 48-well cell adhesion assay kits (Cell Biolabs Inc., San Diego, Calif.).
After detachment of naïve hDMCs and MΦ-co-cultured hDMCs, cell suspensions were prepared in serum-free DMEM. A total of 1.5×10^3 cells in 150 μl serum-free medium were added to each well and incubated for 1 hour at 37° C. After removal of the medium, the cells were washed four times with 150 μl PBS.
Cell staining and protein extraction were performed according to the manufacturer's instructions. Cellular adhesion was assessed by measuring the optical density at 560 nm on a Gemini XPS Microplate Reader (Molecular Devices, Sunnyvale, Calif.).
For an adhesion assay for the functional validation of integrin α2β1, the co-cultured hDMCs were incubated with 130 nM BTT 3033 at 37° C. for 30 min. After incubation, an adhesion assay was performed as described above.

Sequence of integrin α2β1 (P17301 30-1181): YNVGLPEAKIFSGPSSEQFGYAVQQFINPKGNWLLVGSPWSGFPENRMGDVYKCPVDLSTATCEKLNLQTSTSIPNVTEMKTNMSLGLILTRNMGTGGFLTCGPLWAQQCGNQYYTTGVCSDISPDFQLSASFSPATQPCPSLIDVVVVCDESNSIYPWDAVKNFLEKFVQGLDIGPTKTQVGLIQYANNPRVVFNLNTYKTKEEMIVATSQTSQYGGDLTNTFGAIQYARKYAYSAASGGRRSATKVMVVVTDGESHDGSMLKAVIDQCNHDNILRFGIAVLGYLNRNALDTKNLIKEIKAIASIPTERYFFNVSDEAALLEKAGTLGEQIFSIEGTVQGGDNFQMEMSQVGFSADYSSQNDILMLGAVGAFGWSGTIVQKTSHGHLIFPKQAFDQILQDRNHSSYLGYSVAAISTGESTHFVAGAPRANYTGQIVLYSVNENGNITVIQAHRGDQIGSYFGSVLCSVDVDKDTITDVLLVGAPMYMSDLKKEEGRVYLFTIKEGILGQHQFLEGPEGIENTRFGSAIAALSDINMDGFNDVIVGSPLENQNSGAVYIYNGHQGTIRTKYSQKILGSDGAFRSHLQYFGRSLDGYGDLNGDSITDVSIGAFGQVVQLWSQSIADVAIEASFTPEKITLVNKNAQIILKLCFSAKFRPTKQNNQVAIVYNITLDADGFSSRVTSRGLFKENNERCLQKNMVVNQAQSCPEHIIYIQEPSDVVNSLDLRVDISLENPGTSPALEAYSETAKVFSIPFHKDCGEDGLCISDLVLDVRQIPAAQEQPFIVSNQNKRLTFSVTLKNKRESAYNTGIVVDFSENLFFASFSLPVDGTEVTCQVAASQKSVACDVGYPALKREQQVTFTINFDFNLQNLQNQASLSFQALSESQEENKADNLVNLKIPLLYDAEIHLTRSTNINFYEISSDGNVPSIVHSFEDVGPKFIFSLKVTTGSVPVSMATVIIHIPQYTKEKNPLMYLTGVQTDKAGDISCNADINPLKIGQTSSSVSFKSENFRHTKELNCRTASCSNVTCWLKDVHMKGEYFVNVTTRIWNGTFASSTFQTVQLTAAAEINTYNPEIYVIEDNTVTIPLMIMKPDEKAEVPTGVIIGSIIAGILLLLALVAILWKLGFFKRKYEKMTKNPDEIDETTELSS
Sequence of integrin α2β1 (P05556 21-798 partner): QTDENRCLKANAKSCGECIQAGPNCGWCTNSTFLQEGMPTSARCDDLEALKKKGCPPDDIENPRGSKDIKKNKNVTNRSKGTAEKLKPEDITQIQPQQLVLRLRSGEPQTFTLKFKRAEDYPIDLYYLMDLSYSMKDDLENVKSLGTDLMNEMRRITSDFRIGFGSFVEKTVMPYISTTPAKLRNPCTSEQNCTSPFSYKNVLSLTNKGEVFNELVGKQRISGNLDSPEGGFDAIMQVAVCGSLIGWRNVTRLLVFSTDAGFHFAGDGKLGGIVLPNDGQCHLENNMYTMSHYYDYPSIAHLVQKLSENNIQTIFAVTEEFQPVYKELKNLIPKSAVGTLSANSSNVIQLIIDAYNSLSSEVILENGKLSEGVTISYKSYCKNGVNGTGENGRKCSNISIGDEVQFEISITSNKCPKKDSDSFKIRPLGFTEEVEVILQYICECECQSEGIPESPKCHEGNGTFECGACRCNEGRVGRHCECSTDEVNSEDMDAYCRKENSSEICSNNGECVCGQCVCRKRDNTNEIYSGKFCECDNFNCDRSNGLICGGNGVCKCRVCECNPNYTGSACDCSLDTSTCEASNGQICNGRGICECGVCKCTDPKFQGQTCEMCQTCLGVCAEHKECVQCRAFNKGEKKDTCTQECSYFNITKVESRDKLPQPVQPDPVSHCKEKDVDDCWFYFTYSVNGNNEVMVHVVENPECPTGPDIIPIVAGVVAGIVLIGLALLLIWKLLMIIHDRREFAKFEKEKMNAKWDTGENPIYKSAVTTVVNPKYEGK

Structure (SMILES): CN(c1ccc(NC(=O)Nc2ccccc2)cc1)S(=O)(=O)c1cnn(-c2ccc(F)cc2)c1 [BTT 3033, 1-(4-Fluorophenyl)-N-methyl-N-[4[[(phenylamino)carbonyl]amino]phenyl]-1H-pyrazole-4-sulfonamide]
- EC50 (integrin α2β1): 130 nM
- Viability (A.U.) (hDMCs; BTT 3033 16.25 nM): 0.896 ± 0.090 A.U.
- Viability (A.U.) (hDMCs; BTT 3033 32.50 nM): 0.844 ± 0.099 A.U.
- Viability (A.U.) (hDMCs; BTT 3033 65.00 nM): 0.899 ± 0.075 A.U.
- Viability (A.U.) (hDMCs; BTT 3033 130.00 nM): 0.800 ± 0.054 A.U.
- Viability (A.U.) (hDMCs; BTT 3033 260.00 nM): 0.854 ± 0.081 A.U.
- Viability (A.U.) (hDMCs; BTT 3033 520.00 nM): 0.827 ± 0.069 A.U.
- cytotoxicity (hDMCs; concentration from 16.25 to 520.00 nM): less than 20.0%
- adhesion of co-cultured hDMCs to collagen I (co-cultured hDMCs; un-treated 0.43±0.03): 0.27±0.04
- adhesion of co-cultured hDMCs to collagen IV (co-cultured hDMCs; un-treated 0.44±0.08): 0.28±0.08
- reduction of adhesion of co-cultured hDMCs to collagen I (co-cultured hDMCs; vs un-treated, p<0.001): 37.8%
- reduction of adhesion of co-cultured hDMCs to collagen IV (co-cultured hDMCs; vs un-treated, p=0.057): 35.7%
